Results as given in US20240254157A1, “MACROLIDE COMPOUNDS” (VANDERBILT UNIVERSITY, priority 2021, published 2024).
Where two headings read alike, the source gives them in different places.

How the values were obtained:
[1] = system: primary AML patient samples; assay: Cell viability GI50 against primary AML patient samples (CellTiter-Glo); type: cell-based
Description: Compounds were diluted in DMSO (<0.05% DMSO) and dispensed into a 384-well plate using the Echo 555 liquid handler (Labcyte). Following the addition of compounds, cells were pipetted into the 384-well plates at a concentration of between 2,000 and 8,000 cells per well in IMDM or RPMI media, as noted above, supplemented with 10% FBS and incubated at 37° C., 5% CO2 in a tissue culture incubator. Plates were incubated for 48 hours, and cell viability was measured using the CellTiter-Glo reagent (Promega). Percent viability was defined as relative luminescence units (RLU) of each well divided by the RLU of cells in DMSO control. Dose-response curves and GI50 values were determined using linear regression of double-log transformed data (GraphPad Prism version 6.0 h). Control bone marrow-derived CD34+ cells were purchased from STEMCELL Technologies.

[2] = system: MV-4-11 cell line derived xenograft; assay: MV-4-11 cell line derived xenograft model; type: in vivo
[3] = system: E1A oncogene transformed cell lines; settings: cited from earlier work
untransformed lines = settings: cited from earlier work
[4] = system: NCI-60 cell lines that do not exhibit the Warburg effect; settings: cited from earlier work

Row | SMILES | GI50 ([1]; patient sample 17-03-006, data collected Jul. 8, 2021, read-out: GI50 from double log regression (converted)) | GI50 ([1]; patient sample 17-03-006, data collected Jul. 8, 2021, read-out: viability GI50 from Prism) | GI50 ([1]; patient sample 17-03-006, data collected Mar. 8, 2022, read-out: GI50 from double log regression (converted)) | GI50 ([1]; patient sample 17-03-006, data collected Mar. 8, 2022, read-out: viability GI50 from Prism) | GI50 ([1]; patient sample 18-12-001, data collected Jul. 8, 2021, read-out: GI50 from double log regression (converted)) | GI50 ([1]; patient sample 18-12-001, data collected Jul. 8, 2021, read-out: viability GI50 from Prism) | GI50 ([1]; patient sample 18-12-001, data collected Mar. 8, 2022, read-out: GI50 from double log regression (converted)) | GI50 ([1]; patient sample 29-09-002, data collected Jul. 8, 2021, read-out: GI50 from double log regression (converted)) | GI50 ([1]; patient sample 29-09-002, data collected Jul. 8, 2021, read-out: viability GI50 from Prism) | efficacy in xenograft model [2] | potency against transformed cells ([3]; transformed cells) | fold more potent against transformed cells than untransformed lines ([3]; transformed vs untransformed) | potency against untransformed lines (untransformed lines) | activity in NCI-60 cell lines relying on oxidative phosphorylation [4]
1 | COCCC[C@H]1O[C@@](O)([C@H](C)[C@@H]2C[C@H](OC)[C@H](O)\C=C(C)/C=C(C)\C=C(\C)[C@@H](O[C@@H]3O[C@@H](C)[C@H](O)[C@@H](O)[C@@H]3O)[C@H](C)\C=C(C)/C=C(OC)\C=C(\C)C(=O)O2)[C@H](OC)[C@@H](O)[C@]1(C)O[C@H]1C[C@H](O)[C@H](O[C@H]2C[C@@](C)(O)[C@H](O)[C@@H](C)O2)[C@@H](C)O1 [ammocidin A] | 32.1 nM | 10.3 nM | 30.8 nM | 9.5 nM | 31.2 nM | 30.2 nM | 75.4 nM | 21.7 nM | 15.8 nM | comparable efficacy | – | – | – | –
2 | COC[C@@H](C[C@H]1O[C@@](O)([C@H](O)[C@@H]2C[C@H](OC)[C@@H](O)CC/C=C(C)/C=C/[C@@H](O[C@@H]3O[C@@H](C)[C@H](OC)[C@@H](O)[C@@H]3O)[C@H](C)/C=C(C)/C=C(C)/C=C(\C)C(=O)O2)[C@H](C)[C@@H](O)[C@H]1C)OC1C[C@](C)(O)[C@@H](O[C@H]2C[C@@H](OC)[C@H](O)[C@@H](C)O2)[C@H](C)O1 (some centres unmarked) [apoptolidin, Apoptolidin A] | – | – | – | – | – | – | – | – | – | – | 10 nM | 1,000 fold | 10000 nM | low nanomolar
